Literature values in patent US10414795B2, “Techniques of preparing collagen active peptides” (Technical Institute of Physics and Chemistry, Chinese …, priority 2016, dated 2019).

System: human breast cancer cell line MCF-7
Conditions: read-out: IC50, dose-dependent inhibition effect

IC50 | Sequence
8.1 µM | LPHVLTPEAGAT [Leu-Pro-His-Val-Leu-Thr-Pro-Glu-Ala-Gly-Ala-Thr, anticancer peptide (1206 Da) from tuna dark muscle byproduct hydrolysate]
8.8 µM | PTAEGVYMVT [Pro-Thr-Ala-Glu-Gly-Val-Tyr-Met-Val-Thr, anticancer peptide (1124 Da) from tuna dark muscle byproduct hydrolysate]
